Reference: the NIST ThermoML archive (doi:10.1021/je201211f)
± gives the expanded uncertainty stated by the source.

Legend:
[1] = refractive index (Na D-line) (dimensionless); xn = mol fraction of the nth substance listed; details: 298.15 K, 101 kPa, Liquid
[2] = xn = mol fraction of the nth substance listed; details: 101 kPa, Liquid; for mass density: Vibrating tube method; for viscosity: Capillary tube (Ostwald / Ubbelohde) method

ClC=C(Cl)Cl [trichloroethene] + Cc1cccc(C)c1
[1]
Details | refractive index
x1 = 0.085 | 1.4932 ± 0.0007
x1 = 0.1622 | 1.4922 ± 0.0007
x1 = 0.2415 | 1.4908 ± 0.0007
x1 = 0.3204 | 1.4894 ± 0.0007
x1 = 0.3935 | 1.488 ± 0.0007
x1 = 0.496 | 1.4859 ± 0.0007
x1 = 0.5613 | 1.4845 ± 0.0007
x1 = 0.6429 | 1.4825 ± 0.0007
x1 = 0.7226 | 1.4807 ± 0.0007
x1 = 0.8061 | 1.4789 ± 0.0007
x1 = 0.8832 | 1.4773 ± 0.0007
x1 = 0.9596 | 1.4756 ± 0.0007

[2]
Details | mass density, 293.15 K [kg/m3] | mass density, 298.15 K [kg/m3] | mass density, 303.15 K [kg/m3] | viscosity, 298.15 K [mPa·s]
x1 = 0.0494 | 886.2 ± 0.35 | 881.77 ± 0.35 | 877.34 ± 0.35 | –
x1 = 0.0768 | – | – | – | 0.5895 ± 0.0077
x1 = 0.0796 | 899.93 ± 0.35 | 895.43 ± 0.35 | 890.91 ± 0.34 | –
x1 = 0.1465 | – | – | – | 0.5893 ± 0.0076
x1 = 0.1531 | 934.34 ± 0.36 | 929.62 ± 0.35 | 924.88 ± 0.34 | –
x1 = 0.23 | 971.87 ± 0.36 | 966.92 ± 0.34 | 961.95 ± 0.33 | –
x1 = 0.2415 | – | – | – | 0.5895 ± 0.0076
x1 = 0.3097 | 1012.52 ± 0.37 | 1007.32 ± 0.35 | 1002.09 ± 0.33 | –
x1 = 0.3204 | – | – | – | 0.5897 ± 0.0075
x1 = 0.3935 | – | – | – | 0.5893 ± 0.0075
x1 = 0.4065 | 1064.66 ± 0.39 | 1059.1 ± 0.36 | 1053.53 ± 0.34 | –
x1 = 0.4841 | 1108.6 ± 0.4 | 1102.78 ± 0.38 | 1096.93 ± 0.36 | –
x1 = 0.496 | – | – | – | 0.5883 ± 0.0075
x1 = 0.5561 | 1151.33 ± 0.42 | 1145.2 ± 0.4 | 1139.05 ± 0.37 | –
x1 = 0.5613 | – | – | – | 0.5875 ± 0.0074
x1 = 0.6423 | – | – | – | 0.5863 ± 0.0074
x1 = 0.6453 | 1206.86 ± 0.44 | 1200.35 ± 0.41 | 1193.84 ± 0.39 | –
x1 = 0.709 | 1248.6 ± 0.45 | 1241.79 ± 0.43 | 1234.95 ± 0.41 | –
x1 = 0.7204 | – | – | – | 0.5851 ± 0.0074
x1 = 0.7639 | – | – | – | 0.5844 ± 0.0073
x1 = 0.7989 | 1310.61 ± 0.49 | 1303.35 ± 0.45 | 1296.06 ± 0.42 | –
x1 = 0.8774 | – | – | – | 0.5823 ± 0.0073
x1 = 0.8937 | 1380.16 ± 0.52 | 1372.41 ± 0.48 | 1364.61 ± 0.44 | –
x1 = 0.9596 | – | – | – | 0.5808 ± 0.0073
x1 = 0.974 | 1442.88 ± 0.5 | 1434.66 ± 0.5 | 1426.38 ± 0.5 | –
